Experimental findings from ChEMBL document CHEMBL1201862, “PubChem BioAssay data set” (2004) are described below.

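Five compound concentrations were applied to cells in 96-well plates for 48 hours; endpoints were derived by simple linear interpolation of the resulting dose-response curve. Abbreviation: GI50, concentration required for 50% inhibition of growth.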 Activity calls are given as the source filed them. No stated cut-off is given here; in the data, active = GI50 up to about 1.1 µM and inactive = higher. Where a SMILES comes first, the peptide text is derived from it. [ ]: non-standard residue; d: D form. The star is where a group is joined. ξ: configuration not given here. X38 = O=C(OCc1ccccc1)[C@@H]1CCC[C@H]1N*; Fmoc = O=C(OCC1c2ccccc2-c2ccccc21)*; ξW = NC(Cc1c[nH]c2ccccc12)C(=O)O; ξF = NC(Cc1ccccc1)C(=O)O; Boc = CC(C)(C)OC(=O)*; ξK = NCCCCC(N)C(=O)O; ξT = CC(O)C(N)C(=O)O; tBu = CC(C)(C)*

Some test systems named below: SK-OV-3; NCI-H23; HCT-15; OVCAR-8; IGROV-1; UACC-257; SN12C; HT-29; OVCAR-5; SW-620; MDA-MB-231; SF-295; T47D; UO-31; A498; Malme-3M; 786-0; TK-10; MOLT-4; HOP-62.
Common to all, as to experiment: NCI anticancer screen, dose series, 48 h

`CN(C)c1ccc2nc3c(C(=O)O)cc(O)c(O)c3[o+]c2c1`: the GI50 in the experiment with SK-OV-3 was 25 µM (inactive); in the experiment with NCI-H23, 16.8 µM (inactive); in the experiment on HCT-15 it was 37.5 µM; in the experiment with OVCAR-8, 41 µM (inactive); in the experiment on IGROV-1 it was 92.3 µM (inactive); with UACC-257, 14.8 µM (inactive). Further, the GI50 is 20.2 µM (inactive) with SN12C; 38.5 µM (inactive) in the experiment on HT-29; 65.3 µM (inactive) in the experiment on OVCAR-5; 31 µM (inactive) in the experiment with SW-620; 33 µM (inactive) in the experiment with MDA-MB-231; > 100 µM (inactive) in the experiment with SF-295. Besides, the GI50 in the experiment on T47D was 15.1 µM (inactive); in the experiment with UO-31 it was 28.6 µM (inactive); with A498, > 100 µM (inactive); in the experiment with Malme-3M, 6.49 µM (inactive); with 786-0 it was 29.1 µM (inactive); with TK-10 it was 21.8 µM (inactive). Moreover, the GI50 in the experiment on MOLT-4 was 14.4 µM (inactive); in the experiment with HOP-62, 52.8 µM (inactive).
As for `COc1ccc(/N=C(C)/C(C)=N/c2ccc(OC)cc2)cc1`, the GI50 in the experiment on SK-OV-3 is > 100 µM (inactive); in the experiment on NCI-H23 it was 73.6 µM (inactive); with HCT-15 it was 15.6 µM; in the experiment on OVCAR-8, 58.6 µM (inactive); in the experiment on IGROV-1, > 100 µM (inactive); in the experiment on UACC-257, 56.9 µM (inactive). Also, the GI50 in the experiment with SN12C was > 100 µM (inactive); with HT-29, 48.6 µM (inactive); in the experiment with OVCAR-5, > 100 µM (inactive); with SW-620 it was 63.1 µM (inactive); in the experiment on MDA-MB-231 it was > 100 µM (inactive); with SF-295, 17 µM (inactive). The GI50 in the experiment with T47D is 77.1 µM (inactive); with UO-31, 6.97 µM (inactive); in the experiment with A498 it was > 100 µM (inactive); in the experiment with Malme-3M, > 100 µM (inactive); in the experiment with 786-0, > 100 µM (inactive); with TK-10, > 100 µM (inactive). Further, the GI50 in the experiment with MOLT-4 is 15.6 µM (inactive); with HOP-62 it was > 100 µM (inactive).
As for `COC(=O)CN1SC2(SC13C(C)(C)C(=O)C3(C)C)C(C)(C)C(=O)C2(C)C`, the GI50 is 41 µM (inactive) in the experiment on SK-OV-3; > 100 µM (inactive) in the experiment on NCI-H23; above 100 µM in the experiment with HCT-15; 64.4 µM (inactive) in the experiment on OVCAR-8; 89.5 µM (inactive) in the experiment on IGROV-1; 48.2 µM (inactive) in the experiment with UACC-257. The GI50 is 48.3 µM (inactive) in the experiment with SN12C; > 100 µM (inactive) in the experiment with HT-29; > 100 µM (inactive) in the experiment on OVCAR-5; 68.7 µM (inactive) with SW-620; 77.3 µM (inactive) in the experiment with MDA-MB-231; 48.3 µM (inactive) in the experiment on SF-295. Further, the GI50 in the experiment with T47D is > 100 µM (inactive); in the experiment with UO-31, 86.3 µM (inactive); in the experiment on A498 it was 30 µM (inactive); in the experiment on Malme-3M, 50.6 µM (inactive); in the experiment on 786-0, > 100 µM (inactive); in the experiment with TK-10, > 100 µM (inactive). The GI50 with MOLT-4 is 37 µM (inactive); with HOP-62, 91 µM (inactive).
Regarding `CC(OC(C)(C)C)C(NC(=O)C(CCCCNC(=O)OC(C)(C)C)NC(=O)C(Cc1c[nH]c2ccccc12)NC(=O)C(Cc1ccccc1)NC(=O)OCC1c2ccccc2-c2ccccc21)C(=O)NC(Cc1ccccc1)C(=O)N[C@@H]1CCC[C@H]1C(=O)OCc1ccccc1` (stereo not given in full) (Fmoc-[ξF][ξW][ξK](Boc)[ξT](tBu)[ξF]-X38), the GI50 in the experiment on SK-OV-3 was > 100 µM (inactive); in the experiment on NCI-H23, > 100 µM (inactive); in the experiment on HCT-15, above 100 µM; with OVCAR-8, > 100 µM (inactive); with IGROV-1, > 100 µM (inactive); in the experiment on UACC-257, > 100 µM (inactive). For the same compound, the GI50 in the experiment on SN12C was > 100 µM (inactive); in the experiment with HT-29 it was > 100 µM (inactive); with OVCAR-5, > 100 µM (inactive); in the experiment with SW-620 it was > 100 µM (inactive); with MDA-MB-231, 65.3 µM (inactive); with SF-295, > 100 µM (inactive). The GI50 with T47D was > 100 µM (inactive); in the experiment on UO-31, > 100 µM (inactive); in the experiment with A498, > 10 µM (inactive); with Malme-3M it was > 100 µM (inactive); in the experiment with 786-0 it was > 100 µM (inactive); with TK-10 it was > 100 µM (inactive). Further, the GI50 in the experiment on MOLT-4 and in the experiment on HOP-62 was > 100 µM (inactive) throughout.
On to `COC(=O)c1ccccc1C1CN=NC12Cc1c(ccc(C)c1C)C2=O` (stereo not given), for which the GI50 with SK-OV-3 was 72.8 µM (inactive); with NCI-H23 it was > 100 µM (inactive); in the experiment on HCT-15, above 100 µM; in the experiment with OVCAR-8 it was 61.1 µM (inactive); with IGROV-1 it was > 100 µM (inactive); in the experiment on UACC-257, > 100 µM (inactive). Further, the GI50 in the experiment with SN12C is > 100 µM (inactive); in the experiment with HT-29 it was > 100 µM (inactive); in the experiment with OVCAR-5, > 100 µM (inactive); in the experiment on SW-620, > 100 µM (inactive); in the experiment on MDA-MB-231, 81.5 µM (inactive); in the experiment with SF-295, > 100 µM (inactive). Besides, the GI50 in the experiment on T47D was > 100 µM (inactive); with UO-31, > 100 µM (inactive); with A498 it was > 100 µM (inactive); with Malme-3M, > 100 µM (inactive); with 786-0 it was 38.4 µM (inactive); in the experiment on TK-10, > 100 µM (inactive). The values for the GI50 with MOLT-4 and in the experiment with HOP-62 were > 100 µM (inactive) and 57.3 µM (inactive), respectively.
In the case of `CN1CCC23c4c5ccc(O)c4OC2c2[nH]c4ccccc4c2CC3(O)C1C5` (stereo not given), the GI50 in the experiment on SK-OV-3 was > 100 µM (inactive); in the experiment on NCI-H23, > 100 µM (inactive); in the experiment on HCT-15, 25.6 µM; in the experiment with OVCAR-8, 54.8 µM (inactive); with IGROV-1, 66.4 µM (inactive); with UACC-257, 18.5 µM (inactive). Further, the GI50 in the experiment with SN12C was 70.5 µM (inactive); with HT-29, 31.9 µM (inactive); with OVCAR-5, > 100 µM (inactive); in the experiment with SW-620, 22.4 µM (inactive); in the experiment with MDA-MB-231 it was 31.5 µM (inactive); in the experiment on SF-295, 52.4 µM (inactive). The GI50 was 20.8 µM (inactive) with T47D; 15.2 µM (inactive) in the experiment with UO-31; 18.8 µM (inactive) in the experiment with A498; 20.6 µM (inactive) in the experiment on Malme-3M; 18.7 µM (inactive) in the experiment with 786-0; 18.9 µM (inactive) in the experiment on TK-10. Also, the GI50 in the experiment on MOLT-4 was 18.6 µM (inactive); with HOP-62, > 100 µM (inactive).
Take `COC(=O)[C@@H]1CN(C(=O)CCc2ccccc2)C(=O)N1`: the GI50 is > 100 µM (inactive) with SK-OV-3; > 100 µM (inactive) in the experiment on NCI-H23; above 100 µM in the experiment on HCT-15; > 100 µM (inactive) in the experiment with OVCAR-8; > 100 µM (inactive) in the experiment on IGROV-1; > 100 µM (inactive) in the experiment on UACC-257. Further, the GI50 in the experiment on SN12C, in the experiment on HT-29, with OVCAR-5, in the experiment with SW-620, in the experiment on MDA-MB-231 and in the experiment on SF-295 was > 100 µM (inactive) each time. Further, the GI50 with T47D was > 100 µM (inactive); with UO-31, 50.2 µM (inactive); in the experiment with A498 it was > 100 µM (inactive); with Malme-3M, > 100 µM (inactive); in the experiment with 786-0, > 100 µM (inactive); in the experiment on TK-10, > 100 µM (inactive). Also, the GI50 with MOLT-4 and in the experiment with HOP-62 was > 100 µM (inactive) each time.
